What was measured:
Assay in all cases: relative viability (nuclei count vs DMSO), 5 days (fraction); higher = more cells survive
Palbociclib = compound: CC(=O)c1c(C)c2cnc(Nc3ccc(N4CCNCC4)cn3)nc2n(C2CCCC2)c1=O [Palbociclib]
In short: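 Lung cancer cell lines in 1536-well plates were kept overnight at 37 °C, then pinned with five library-drug doses (not always all listed) spaced by √10 on vehicle-anchored plates. After 5 days without medium change, cells were fixed, permeabilised and Hoechst-stained in one step, imaged at 4×, and nuclei were counted with MetaXpress. Viability is treated-well nuclei divided by vehicle-well nuclei, taken as the median over plates. Plates passed only with control CV below 25% and at least one doubling.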

Palbociclib + Trametinib = compound: CC(=O)c1c(C)c2cnc(Nc3ccc(N4CCNCC4)cn3)nc2n(C2CCCC2)c1=O [Palbociclib] + CC(=O)Nc1cccc(-n2c(=O)n(C3CC3)c(=O)c3c(Nc4ccc(I)cc4F)n(C)c(=O)c(C)c32)c1 [Trametinib] (partner 0.02 µM)
In short: (§1)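 Five library-drug doses in √10 steps were combined with a fixed anchor-drug dose, or a single drug was given alone, by pin tool to lung cancer cell lines in 1536-well plates the day after seeding. Nuclei were stained and counted after 5 days. Relative viability is the nuclei count in treated wells over that in vehicle wells, taken as the median of duplicate plates.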

Palbociclib + OSI-027 = compound: CC(=O)c1c(C)c2cnc(Nc3ccc(N4CCNCC4)cn3)nc2n(C2CCCC2)c1=O [Palbociclib] + COc1cccc2cc(-c3nc([C@H]4CC[C@H](C(=O)O)CC4)n4ncnc(N)c34)[nH]c12 [OSI-027] (partner 0.5 µM)
In short: as §1

Palbociclib + Luminespib = compound: CC(=O)c1c(C)c2cnc(Nc3ccc(N4CCNCC4)cn3)nc2n(C2CCCC2)c1=O [Palbociclib] + CCNC(=O)c1noc(-c2cc(C(C)C)c(O)cc2O)c1-c1ccc(CN2CCOCC2)cc1 [Luminespib] (partner 0.01 µM)
In short: as §1

Palbociclib + Olaparib = compound: CC(=O)c1c(C)c2cnc(Nc3ccc(N4CCNCC4)cn3)nc2n(C2CCCC2)c1=O [Palbociclib] + O=C(c1cc(Cc2n[nH]c(=O)c3ccccc23)ccc1F)N1CCN(C(=O)C2CC2)CC1 [Olaparib] (partner 8 µM)
In short: as §1

Palbociclib + Tozasertib = compound: CC(=O)c1c(C)c2cnc(Nc3ccc(N4CCNCC4)cn3)nc2n(C2CCCC2)c1=O [Palbociclib] + Cc1cc(Nc2cc(N3CCN(C)CC3)nc(Sc3ccc(NC(=O)C4CC4)cc3)n2)n[nH]1 [Tozasertib] (partner 0.1 µM)
In short: as §1

Palbociclib + Pemetrexed = compound: CC(=O)c1c(C)c2cnc(Nc3ccc(N4CCNCC4)cn3)nc2n(C2CCCC2)c1=O [Palbociclib] + Nc1nc2[nH]cc(CCc3ccc(C(=O)N[C@@H](CCC(=O)O)C(=O)O)cc3)c2c(=O)[nH]1 [Pemetrexed] (partner 0.2 µM)
In short: as §1

Palbociclib + AZD7762 = compound: CC(=O)c1c(C)c2cnc(Nc3ccc(N4CCNCC4)cn3)nc2n(C2CCCC2)c1=O [Palbociclib] + NC(=O)Nc1cc(-c2cccc(F)c2)sc1C(=O)N[C@H]1CCCNC1 [AZD7762] (partner 0.2 µM)
In short: as §1

Palbociclib + Phenformin = compound: CC(=O)c1c(C)c2cnc(Nc3ccc(N4CCNCC4)cn3)nc2n(C2CCCC2)c1=O [Palbociclib] + N=C(N)NC(=N)NCCc1ccccc1 [Phenformin] (partner 250 µM)
In short: as §1

Palbociclib + Decitabine = compound: CC(=O)c1c(C)c2cnc(Nc3ccc(N4CCNCC4)cn3)nc2n(C2CCCC2)c1=O [Palbociclib] + Nc1ncn([C@H]2C[C@H](O)[C@@H](CO)O2)c(=O)n1 [Decitabine] (partner 2 µM)
In short: as §1

Palbociclib + Dasatinib = compound: CC(=O)c1c(C)c2cnc(Nc3ccc(N4CCNCC4)cn3)nc2n(C2CCCC2)c1=O [Palbociclib] + Cc1nc(Nc2ncc(C(=O)Nc3c(C)cccc3Cl)s2)cc(N2CCN(CCO)CC2)n1 [Dasatinib] (partner 0.075 µM)
In short: as §1

Palbociclib + Vorinostat = compound: CC(=O)c1c(C)c2cnc(Nc3ccc(N4CCNCC4)cn3)nc2n(C2CCCC2)c1=O [Palbociclib] + O=C(CCCCCCC(=O)Nc1ccccc1)NO [Vorinostat] (partner 1 µM)
In short: as §1

Cell Line NCI-H522 has a relative viability (Palbociclib; 0.01 µM) of 1.15, a relative viability (Palbociclib; 0.03162 µM) of 0.616 and a relative viability (Palbociclib; 0.1 µM) of 0.949. For the same cell line, the relative viability (Palbociclib; 0.3162 µM) was 0.915, the relative viability (Palbociclib; 0.5 µM, anchor plate) was 1.02 and the relative viability (Palbociclib; 1 µM) was 0.879. It also gave a relative viability (Palbociclib + Trametinib; first compound 0.01 µM) of 0.818, a relative viability (Palbociclib + Trametinib; first compound 0.03162 µM) of 0.576 and a relative viability (Palbociclib + Trametinib; first compound 0.1 µM) of 0.776. For the same cell line, the relative viability (Palbociclib + Trametinib; first compound 0.3162 µM) was 0.797, the relative viability (Palbociclib + Trametinib; first compound 1 µM) was 0.853 and the relative viability (Palbociclib + OSI-027; first compound 0.01 µM) was 0.772. The relative viability (Palbociclib + OSI-027; first compound 0.03162 µM) was 0.606, the relative viability (Palbociclib + OSI-027; first compound 0.1 µM) was 0.777 and the relative viability (Palbociclib + OSI-027; first compound 0.3162 µM) was 0.765. It also gave a relative viability (Palbociclib + OSI-027; first compound 1 µM) of 0.765, a relative viability (Palbociclib + Luminespib; first compound 0.01 µM) of 1.2 and a relative viability (Palbociclib + Luminespib; first compound 0.1 µM) of 1.19. The relative viability (Palbociclib + Luminespib; first compound 0.3162 µM) was 1.19, the relative viability (Palbociclib + Luminespib; first compound 1 µM) was 1.18 and the relative viability (Palbociclib + Olaparib; first compound 0.01 µM) was 0.642. For the same cell line, the relative viability (Palbociclib + Olaparib; first compound 0.03162 µM) was 0.612, the relative viability (Palbociclib + Olaparib; first compound 0.1 µM) was 0.689 and the relative viability (Palbociclib + Olaparib; first compound 0.3162 µM) was 0.678. For the same cell line, the relative viability (Palbociclib + Olaparib; first compound 1 µM) was 0.616, the relative viability (Palbociclib + Tozasertib; first compound 0.01 µM) was 0.604 and the relative viability (Palbociclib + Tozasertib; first compound 0.03162 µM) was 0.517. For the same cell line, the relative viability (Palbociclib + Tozasertib; first compound 0.1 µM) was 0.573, the relative viability (Palbociclib + Tozasertib; first compound 0.3162 µM) was 0.469 and the relative viability (Palbociclib + Tozasertib; first compound 1 µM) was 0.539. It also gave a relative viability (Palbociclib + Pemetrexed; first compound 0.01 µM) of 1.2, a relative viability (Palbociclib + Pemetrexed; first compound 0.03162 µM) of 0.504 and a relative viability (Palbociclib + Pemetrexed; first compound 0.1 µM) of 0.99. For the same cell line, the relative viability (Palbociclib + Pemetrexed; first compound 0.3162 µM) was 1.02, the relative viability (Palbociclib + Pemetrexed; first compound 1 µM) was 0.932 and the relative viability (Palbociclib + AZD7762; first compound 0.01 µM) was 1.01. The relative viability (Palbociclib + AZD7762; first compound 0.03162 µM) was 0.453, the relative viability (Palbociclib + AZD7762; first compound 0.1 µM) was 0.934 and the relative viability (Palbociclib + AZD7762; first compound 0.3162 µM) was 0.843. It also gave a relative viability (Palbociclib + AZD7762; first compound 1 µM) of 0.814, a relative viability (Palbociclib + Phenformin; first compound 0.01 µM) of 0.623 and a relative viability (Palbociclib + Phenformin; first compound 0.03162 µM) of 0.592. The relative viability (Palbociclib + Phenformin; first compound 0.1 µM) was 0.586, the relative viability (Palbociclib + Phenformin; first compound 0.3162 µM) was 0.644 and the relative viability (Palbociclib + Phenformin; first compound 1 µM) was 1.19. It also gave a relative viability (Palbociclib + Decitabine; first compound 0.01 µM) of 0.749, a relative viability (Palbociclib + Decitabine; first compound 0.03162 µM) of 0.646 and a relative viability (Palbociclib + Decitabine; first compound 0.1 µM) of 0.635. It also gave a relative viability (Palbociclib + Decitabine; first compound 0.3162 µM) of 0.736, a relative viability (Palbociclib + Decitabine; first compound 1 µM) of 0.709 and a relative viability (Palbociclib + Dasatinib; first compound 0.01 µM) of 0.896. The relative viability (Palbociclib + Dasatinib; first compound 0.03162 µM) was 0.658, the relative viability (Palbociclib + Dasatinib; first compound 0.1 µM) was 0.809 and the relative viability (Palbociclib + Dasatinib; first compound 0.3162 µM) was 0.922. For the same cell line, the relative viability (Palbociclib + Dasatinib; first compound 1 µM) was 0.914, the relative viability (Palbociclib + Vorinostat; first compound 0.01 µM) was 0.912 and the relative viability (Palbociclib + Vorinostat; first compound 0.03162 µM) was 0.536. It also gave a relative viability (Palbociclib + Vorinostat; first compound 0.1 µM) of 0.906, a relative viability (Palbociclib + Vorinostat; first compound 0.3162 µM) of 1.03 and a relative viability (Palbociclib + Vorinostat; first compound 1 µM) of 0.802.
